Earlier results in article PMC6784077 (Viruses, 2019).

In the case of enfuvirtide, the t1/2 is given as ~ 1.5 h.
